The subject of one data set is A375. Briefly: SRB cytotoxicity assay, A375 human melanoma cells. Format: cell-based. The following applies: read-out: IC50 ± SEM A375. A general note: Sulforhodamine B stains cellular protein and so reports cell mass.
For the next data set, the system named is MDA-MB-435. The data set can be described thus: SRB cytotoxicity assay, MDA-MB-435 parental melanoma cells. The class given is cell-based. Conditions: Homo sapiens, read-out: IC50 ± SEM MDA-MB-435.
A further data set has as its system MDA-MB-435/LCCMDR1. The data set can be described thus: SRB cytotoxicity assay, multidrug-resistant MDA-MB-435/LCCMDR1 melanoma cells. Format: cell-based, human. The following applies: for IC50: Homo sapiens, read-out: IC50 ± SEM MDA-MB-435/LCC6MDR1.
For a further data set, the system named is DU 145. The data set can be described thus: SRB cytotoxicity assay, DU 145 prostate cancer cells. The class given is cell-based. Conditions: Homo sapiens, read-out: inhibitory effects DU145. From the text:
(§1) Cells were stained with SRB solution.

Another data set deals with PC-3. Briefly: SRB cytotoxicity assay, PC-3 prostate cancer cells. The class given is cell-based, human. The following applies: Homo sapiens, PC-3, read-out: inhibitory effects PC3.
Source text: as §1

In another data set the test system is LNCaP. Briefly: SRB cytotoxicity assay, LNCaP prostate cancer cells. Format: cell-based, human. The following applies: Homo sapiens, LNCaP.
Source text: as §1

Another data set has as its system PPC-1. Briefly: SRB cytotoxicity assay, PPC-1 prostate cancer cells. Format: cell-based, human. The following applies: Homo sapiens, PPC-1; Table 13B; read-out: inhibitory effects PPC1.
Source text: as §1

A further data set concerns WM-164. The data set can be described thus: SRB cytotoxicity assay, WM-164 human melanoma cells. Conditions: Homo sapiens. Format: cell-based.
Data set [1] has as its system melanoma and prostate cancer cell lines. Briefly: SRB cytotoxicity, summary or average over melanoma and prostate cancer cell lines. Format: cell-based. Conditions: average of all seven cell lines.
A further data set relates to PC-3/TxR tumors. The following applies: for tumor growth inhibition (TGI): day 1 and 9.
A short description of data set [2]: Brain penetration (brain and plasma concentrations) in nude mice. Conditions: IP 10 mpk, mean ± SD.
Data set [3] can be described thus: Metabolic stability in mouse liver microsomes. The class given is in vitro ADME. Conditions: mouse, liver microsomes, pH 7.4, Table 20; read-out: Half life in Mouse liver microsome. For orientation: Liver microsomes are vesicles of endoplasmic reticulum, rich in cytochrome P450 enzymes.
Data set [4] in a line: Metabolic stability in rat liver microsomes. The class given is in vitro ADME. The following applies: rat, liver microsomes, pH 7.4; Table 20; read-out: Half life in Rat liver microsome.
A short description of data set [5]: Metabolic stability in dog liver microsomes. Conditions: dog, dog liver microsomes, pH 7.4; Table 20; read-out: Half life in Dog liver microsome. The class given is in vitro ADME.
Data set [6] is described as follows: in vivo. Conditions: female, Sprague-Dawley, rat, plasma.
Data set [7] can be described thus: in vivo. The following applies: male, ICR, mouse, plasma, po, 20 mg/kg.
A short description of data set [8]: Metabolic stability in human liver microsomes. Conditions: human, liver microsomes, pH 7.4.
Data set [9] in a line: Water solubility, 48 h shaking in water, LC-MS. Format: physicochemical. Here is the method:
Determination of water solubility. […] The suspension was centrifuged at 10,000 rpm for 10 min and filtered on 0.22 μm filter. Concentrations of each compound were measured by LC-MS, consisting of an HP S1100 HPLC instrument (Agilent, Foster ceity, CA) and a Bruker ESQUIRE MS detector with electrospray/ion trap instrument in positive ion mode (Bruker, Fremont, CA). For HPLC, a reverse phase Nova-pak C18 column (150 mm×3.9 mm, Waters, Milford, MA) was used. The mobile phase was composed of 20:80 v/v water/acetonitrile. […] The concentration of each compound was calculated by MS peak area according to the following calibration equation: y=1.3295x+114.24 (R^2=1.00). […] The amount (ng) in each injection was plotted again its relative mass peak area to generate the standard curve in FIG. 17.

Data set [10] in a line: Aqueous solubility, Multiscreen Solubility Filter Plate with LC-MS/MS (PBS pH 7.4). The class given is physicochemical. The following applies: for aqueous solubility: PBS pH 7.4.
For a further data set, the system named is DU145/TXR. Briefly: SRB growth inhibition, paclitaxel-resistant DU145/TXR cells. Format: cell-based. The following applies: Homo sapiens, DU-145; Table 13A; read-out: inhibitory effects DU145/TXR.
A further data set deals with Bovine brain tubulin. Briefly: In vitro tubulin polymerization assay (bovine brain tubulin). The following applies: 10 μM, 20 min incubation, versus vehicle. Format: biochemical.
[11] abbreviates: Table 13B, read-out: inhibitory effects LNCaP.
[12] abbreviates: PC-3/TxR xenograft, IV 10 mpk, day 1 and 9, end point day 19.
Where [13] appears, read: Table 13A, read-out: inhibitory effects LNCaP.

≈ marks a conversion by molar mass, not a printed value. Where a name gives a salt, the structure may show the parent alone. Read-outs that look alike come from different tables or passages of the source.

For the molecule “5-Phenyl-2-(3,4,5-trimethoxybenzyl)-1H-imidazole and 4-phenyl-2-(3,4,5-trimethoxybenzyl)-1H-imidazole [102a]”, in the data set on A375 (Table 14C), the IC50 was 10200 ± 392 nM.

Turning to `CCc1[nH]c(Cc2cc(OC)c(OC)c(OC)c2)nc1-c1ccccc1` [102c, 5-ethyl-4-phenyl-2-(3,4,5-trimethoxybenzyl)-1H-imidazole], the IC50 in the data set on MDA-MB-435 (Table 14C) and with MDA-MB-435/LCCMDR1 (Table 14C) was greater than 50000 nM in each case.

With `O=C(c1ccc(F)cc1)c1c[nH]c(-c2ccc(O)cc2)n1` [12kb], the IC50 with A375 (Table 12, 48 h) came out at 10000 nM.

Turning to `O=C(c1ccccc1)c1nc(-c2ccccc2)c[nH]1` [70aa, phenyl-(4-phenyl-1H-imidazol-2-yl)methanone], the IC50 in the data set on DU 145 (Table 13B), in the data set with PC-3 (Table 13B), in the data set with LNCaP (setting [11]), with PPC-1, in the data set on MDA-MB-435 (Table 14D) and in the data set on MDA-MB-435/LCCMDR1 (Table 14D) was greater than 50000 nM in each case.

On to `COc1cc(C(=O)c2csc(-c3ccccc3)n2)cc(OC)c1O` [compound 34], for which the IC50 in the data set with WM-164 (WM164, Table 6A, read-out: IC50 WM164) is greater than 10000 nM; with LNCaP (Table 6A, read-out: IC50 LNCaP), greater than 10000 nM.

Turning to `CCCc1[nH]c(Cc2cc(OC)c(OC)c(OC)c2)nc1-c1ccccc1` [102d, 4-phenyl-5-propyl-2-(3,4,5-trimethoxybenzyl)-1H-imidazole], the IC50 in the data set on MDA-MB-435 (Table 14C) came to 11000 nM; in the data set with MDA-MB-435/LCCMDR1 (Table 14C), 15900 nM.

Consider `COc1ccc(-c2nc(C(=O)c3ccc(F)cc3)cn2S(=O)(=O)c2ccccc2)cc1` [11cb, (4-fluorophenyl)(2-(4-methoxyphenyl)-1-(phenylsulfonyl)-1H-imidazol-4-yl)methanone], for which the IC50 was 43 nM in the data set with WM-164 (WM164, 48 h, Table 13, 48 h, read-out: IC50 ± SEM WM164 (converted)) and 43 nM in data set [1].

By TGI is commonly meant how far tumour growth fell short of that in controls. A low value points to a weaker effect on the tumour. For the molecule `CC(=O)O[C@@]12CO[C@@H]1C[C@H](O)[C@@]1(C)C(=O)[C@H](O)C3=C(C)[C@@H](OC(=O)[C@H](O)[C@@H](NC(=O)OC(C)(C)C)c4ccccc4)C[C@@](O)([C@@H](OC(=O)c4ccccc4)[C@H]21)C3(C)C` [docetaxel, Docetaxel], the TGI in the data set with PC-3/TxR tumors (setting [12]) stood at 14%; in the data set with PC-3/TxR tumors (PC-3/TxR xenograft, IV 20 mpk, day 1 and 9, end point day 19), 56%. The “Tumor size End” value with PC-3/TxR tumors (setting [12]) stood at 1774 ± 183 mm^3. The “tumor growth inhibition (TGI)” value with PC-3/TxR tumors (i.v. 10 mg/kg) was found to be 14%; with PC-3/TxR tumors (i.v. 20 mg/kg), 56%. The Brain in [2] (1 hr) amounted to 33 ± 14 ng/mL; in [2] (4 hr) it was 20 ± 9 ng/mL. Also, the Plasma in [2] (1 hr) amounted to 768 ± 92 ng/mL; in [2] (4 hr), 345 ± 94 ng/mL.

As usually defined, the half-life is how long it takes for the measured level to halve. What is called bioavailability is dose-corrected exposure relative to a reference, in per cent. A low value points to poor availability. In turn, `COc1cc(C(=O)c2c[nH]c(-c3ccc(Cl)cc3)n2)cc(OC)c1OC` [12fa, (2-(4-chlorophenyl)-1H-imidazol-4-yl)(3,4,5-trimethoxyphenyl)methanone] displayed an IC50 in data set [1] of 43 nM. The half-life at 0.5 μM in data set [3] worked out at 23 min; in data set [4] it was 46 min; in [5] it was 26 min; in [8] it was 56 min. Moreover, the bioavailability in the data set “in vivo [6]” (oral) amounted to 35%; in “in vivo [6]” (po, 10 mg/kg), 35%; in “in vivo [7]”, 62%.

By solubility is commonly meant the concentration that dissolves in the medium under given conditions. A high value points to much dissolved substance. Turning to `COc1cc(C(=O)c2c[nH]c(-c3ccc(N(C)C)cc3)n2)cc(OC)c1OC` [12ga, (2-(4-(dimethylamino)phenyl)-1H-imidazol-4-yl)(3,4,5-trimethoxyphenyl)methanone], in data set [1], the IC50 is 131 nM. The “water solubility, times greater than thiazole counterpart” value in [9] was “about 200 times”. The amount in solution in [9] (thermodynamic from solid, water, 48 h, RT) (solubility at 48 h) came to 13 µg/mL (≈ 34.1 µM).

In turn, `COc1cc(C(=O)c2csc(-c3ccc(N(C)C)cc3)n2)cc(OC)c1OC` [corresponding thiazole analog] yielded a water solubility in data set [9] (water, 48 h, RT) of 0.072 µg/mL (≈ 0.181 µM).

What is called aqueous solubility is the concentration that dissolves in the medium under given conditions. A low value points to little dissolved substance. Turning to `COc1cc(C(=O)c2csc(-c3ccc4[nH]ccc4c3)n2)cc(OC)c1OC` [66a], the aqueous solubility in [10] is 3.8 µg/mL (≈ 9.63 µM).

On to `COc1cc(C(=O)c2csc(Nc3ccccc3)n2)cc(OC)c1OC` [5a, (2-(phenylamino)thiazol-4-yl)(3,4,5-trimethoxyphenyl)methanone], for which, in data set [10], the aqueous solubility is 15 µg/mL (≈ 40.5 µM).

Regarding `CN(C)c1ccc(-c2nc(C(=O)c3ccc(F)cc3)c[nH]2)cc1` [12gb, (2-(4-(dimethylamino)phenyl)-1H-imidazol-4-yl)(4-fluorophenyl)methanone], the IC50 was 56 ± 7 nM in the data set on A375 (Homo sapiens, A-375, 48 h, Table 12, 48 h) and 62 ± 8 nM in the data set with WM-164 (WM164, 48 h, Table 12, 48 h, read-out: IC50 ± SEM WM164 (converted)).

Regarding `COc1cc(C(=O)c2csc(-c3ccc(CN)cc3)n2)cc(OC)c1OC` [2r, (2-(4-(Aminomethyl)phenyl)thiazol-4-yl)(3,4,5-trimethoxyphenyl)methanone hydrochloride], the “increase of solubility (fold)” value in data set [10] (HCl salt versus 1h) is reported as “over 35 fold”.

For the molecule `COc1cc(C(=O)c2nc(-c3ccc(C)cc3)c[nH]2)cc(OC)c1OC` [70f, (4-p-tolyl-1H-imidazol-2-yl)(3,4,5-trimethoxyphenyl)methanone], the IC50 with LNCaP (setting [13]) came out at 13 nM; with DU145/TXR, 21 nM.

On to `COc1cc(C(=O)c2cccc(-c3ccccc3)n2)cc(OC)c1OC` [1c, (6-Phenylpyridin-2-yl)(3,4,5-trimethoxyphenyl)methanone], for which, in the data set on Bovine brain tubulin, the “inhibition of tubulin polymerization” value came out at 64%.

In the case of `COc1cc(Cc2nc(-c3ccccc3)c(C)[nH]2)cc(OC)c1OC` [102b, 5-methyl-4-phenyl-2-(3,4,5-trimethoxybenzyl)-1H-imidazole], the IC50 in the data set on A375 (Homo sapiens, A-375, Table 14C) is greater than 50000 nM.

Take `O=C(c1ccc(F)cc1)c1cn(S(=O)(=O)c2ccccc2)c(-c2ccc(Cl)cc2)n1` [11fb, (2-(4-chlorophenyl)-1-(phenylsulfonyl)-1H-imidazol-4-yl)(4-fluorophenyl)methanone]: the IC50 in the data set with MDA-MB-435/LCCMDR1 (Table 14A, multidrug-resistant cell line, n = 3) came to 35 ± 3 nM; in [1], 72 nM. Moreover, the resistance index in the data set on MDA-MB-435/LCCMDR1 (IC50 on MDA-MB-435/LCC6MDR1 divided by IC50 on MDA-MB-435) and with MDA-MB-435/LCCMDR1 (MDA-MB-435/LCCMDR1 versus MDA-MB-435) was 0.7 each time.

As for `COc1cc(C(=O)c2nc(-c3cc(OC)c(OC)c(OC)c3)c[nH]2)cc(OC)c1OC` [70q, 3,4,5-trimethoxyphenyl-(4-(3,4,5-trimethoxyphenyl)-1H-imidazol-2-yl)methanone], the IC50 in the data set with DU 145 (Table 13B) is greater than 50000 nM; with PC-3 (Table 13B), greater than 50000 nM; in the data set on LNCaP (setting [11]), greater than 50000 nM; in the data set on PPC-1, greater than 50000 nM; in the data set on MDA-MB-435 (Table 14D), 149 nM; in the data set on MDA-MB-435/LCCMDR1 (Table 14D), 211 nM.

On to `COc1cc(C(=O)c2nc(-c3ccc(Br)cc3)c[nH]2)cc(OC)c1OC` [70d, (4-(4-bromophenyl)-1H-imidazol-2-yl)(3,4,5-trimethoxyphenyl)methanone], for which the IC50 with DU 145 (Table 13A) was 66 nM; with PC-3 (Table 13A), 33 nM; in the data set on LNCaP (setting [13]) it was 15 nM; in the data set with DU145/TXR it was 63 nM.

The molecule `COc1cc(C(=O)c2csc(Nc3ccc(F)cc3)n2)cc(OC)c1OC` [5c, (2-(p-fluorophenylamino)thiazol-4-yl)(3,4,5-trimethoxyphenyl)methanone] showed an aqueous solubility in data set [10] of 19 µg/mL (≈ 48.9 µM).

Source of the values: patent publication US12187720B2, “Compounds for treatment of cancer” (ONCTERNAL THERAPEUTICS, INC., priority 2010, dated 2025).
